16 compounds from patent publication US9353116B2, “Methods and compositions for kinase inhibition” (THE REGENTS OF THE UNIVERSITY OF CALIFORNIA, priority 2010, dated 2016) can be followed below.

By IC50 is commonly meant the concentration that gives 50% inhibition.

What all share (format): biochemical
Test [1] addresses T1, T338C c-Src (Gallus gallus (Chicken), UniProt P00523, T338C). The test is described as follows: In vitro kinase assay, T338C c-Src (c-Src-ES1). The following applies: for fold drop in potency against T338C c-Src relative to compound 9: relative to isopropyl vinylsulfonamide 9; for fold increase in inhibition of T338C relative to WT c-Src: T338C vs WT c-Src. As to the method:
In vitro kinase assays for c-Src variants were performed in 50 mM Tris (pH 8.0), 10 mM MgCl2 and 1 mg/mL BSA. When obtaining kinetic parameters (kcat, Km) kinase and peptide substrate (IYGEFKKK) (SEQ ID NO:51) concentrations were 2 nM and 500 μM, respectively, while ATP concentrations ranged from 2000-0.655 μM. Addition of nonradioactive ATP supplemented with ^32P ATP (3,000 Ci/mmol, NEN) was used to initiate kinase reactions. Time points were selected such that product formation never exceeded 10%. Reactions were quenched by spotting 3 μL quantities onto phosphocellulose sheets (P81, Whatman). Afterwards, the sheets were washed 3×5 minutes in 0.5% phosphoric acid and dried. Radioactivity was measured by phosphorimaging and recorded on a Typhoon fluorescence imager (Molecular Dynamics). Data were plotted as rate (min^−1) versus ATP concentration and fitted to the Michaelis-Menten equation, v=[(kcat)[S]]/(Km+[S]), using Kaleidagraph software (Synergy) to extract kinetic parameters. When obtaining IC50 values for the inhibitors, 2% (v/v) DMSO was included in kinase reactions. In these cases ATP, peptide, and enzyme concentrations were 15 nM, 100 μM and 5 nM, respectively, while inhibitor concentrations ranged from 10,000-0.610 nM. […] The data was fitted to a sigmoidal dose-response curve using Prism 4.0c (GraphPad Software) to obtain IC50 values.

The target in test [2] is T2, WT c-Src (Gallus gallus (Chicken), UniProt P00523). The test is described as follows: In vitro kinase assay, WT c-Src. As to the method:
(§1) In vitro kinase assays for c-Src variants were performed in 50 mM Tris (pH 8.0), 10 mM MgCl2 and 1 mg/mL BSA. When obtaining kinetic parameters (kcat, Km) kinase and peptide substrate (IYGEFKKK) (SEQ ID NO:51) concentrations were 2 nM and 500 μM, respectively, while ATP concentrations ranged from 2000-0.655 μM. Addition of nonradioactive ATP supplemented with ^32P ATP (3,000 Ci/mmol, NEN) was used to initiate kinase reactions. Time points were selected such that product formation never exceeded 10%. Reactions were quenched by spotting 3 μL quantities onto phosphocellulose sheets (P81, Whatman). Afterwards, the sheets were washed 3×5 minutes in 0.5% phosphoric acid and dried. Radioactivity was measured by phosphorimaging and recorded on a Typhoon fluorescence imager (Molecular Dynamics). Data were plotted as rate (min^−1) versus ATP concentration and fitted to the Michaelis-Menten equation, v=[(kcat)[S]]/(Km+[S]), using Kaleidagraph software (Synergy) to extract kinetic parameters. When obtaining IC50 values for the inhibitors, 2% (v/v) DMSO was included in kinase reactions. In these cases ATP, peptide, and enzyme concentrations were 15 nM, 100 μM and 5 nM, respectively, while inhibitor concentrations ranged from 10,000-0.610 nM. In all cases, a ten-minute preincubation step between the kinase and the inhibitor preceded addition of ATP and a fifteen-minute reaction. The data was fitted to a sigmoidal dose-response curve using Prism 4.0c (GraphPad Software) to obtain IC50 values.

For the next test, the system named is 307 kinases. The test is described as follows: Kinome-wide profiling (SelectScreen Kinase Profiling Service). The following applies: compounds at 1 μM, ATP at Km,app. As to the method:
The percent inhibition results in FIG. were generated with biochemical enzymatic kinase assays using the SelectScreen® Kinase Profiling Service (Life Technologies Corporation, Madison, Wis.). Compounds were assayed at 1 μM at an ATP concentration equal to the ATP Km,app for the assay following the detailed procedures described in the SelectScreen® Customer Protocol and Assay Conditions documents located at www.invitrogen.com/kinaseprofiling.
Compounds that were profiled include, but are not limited to, 3, 4, 9, 13, and 20. […] The exocyclic amine mimics N6 of ATP and plays an important role in a hydrogen bonding interaction with the hinge region of kinases.

Test [3] has as its target T1, T338C c-Src. The test is described as follows: Gel filtration and kinetic assay, T338C c-Src. The following applies: 23 μM inhibitor, 25 minutes, then PD10 desalting. As to the method: (§2) Inhibitors (final concentration 23 μM) were incubated with c-Src variants (final concentration 11.5 μM) in kinase reaction buffer (50 mM Tris pH 8, 100 mM NaCl, 1 mM DTT, 5% glycerol, 5% DMSO) for 25 minutes at room temperature. The solutions (2.6 mL total) were then passed over PD10 desalting columns (GE Healthcare) using the kinase reaction buffer for elution. Src concentrations were calculated using the extinction coefficient for c-Src (51.140 mM^−1cm^−1) {Seeliger, 2005 #100}. Kinase assays were performed as described in the experimental section at a final enzyme concentration of 10 nM.

The target in test [4] is T2, WT c-Src. The test is described as follows: Gel filtration and kinetic assay, WT c-Src. As to conditions: 23 μM inhibitor, 25 minutes, then PD10 desalting. The procedure:
as §2
For orientation: SEC sorts molecules by how far they enter the pores of the column.

The next test addresses c-Src-ES2 (T338C/V323A) (Gallus gallus (Chicken), UniProt P00523, T338C/V323A). Kind of test: In vitro kinase assay, c-Src-ES2. As to the method: as §1
In another test the target is c-Src-ES3 (T338C/V323S) (Gallus gallus (Chicken), UniProt P00523, T338C/V323S). The test is described as follows: In vitro kinase assay, c-Src-ES3. The following applies: ES3 = T338C/V323S; read-out: c-Src variant IC50 (nM) ES3. The procedure:
as §1

The mark [5] stands for this setting: inhibitor preincubated with Src ten minutes prior to addition of ATP, read-out: T338C c-Src IC50.
The mark [6] stands for this setting: inhibitor preincubated with Src ten minutes prior to addition of ATP, read-out: WT c-Src IC50.
The mark [7] stands for this setting: 10 min preincubation with inhibitor prior to addition of ATP, read-out: IC50 against T338C c-Src.
[8] abbreviates: 10 min preincubation with inhibitor prior to addition of ATP, read-out: IC50 against WT c-Src.

Like-named read-outs stand apart in the source and are kept apart here. A value given as a limit tells only on which side of the number the result lay.

As to `C=CC(=O)Nc1cccc(Cc2nn(C(C)C)c3ncnc(N)c23)c1` [Compound 7, N-(3-((4-amino-1-isopropyl-1H-pyrazolo[3,4-d]pyrimidin-3-yl)methyl)phenyl)acrylamide], the IC50 on T338C c-Src [1] (setting [5]) is 2760 nM; at WT c-Src [2] (setting [6]), greater than 5000 nM.

Take `C=CC(=O)Nc1ccc(Cc2nn(C(C)C)c3ncnc(N)c23)cc1` [Compound 8, N-(4-((4-amino-1-isopropyl-1H-pyrazolo[3,4-d]pyrimidin-3-yl)methyl)phenyl)acrylamide]: the IC50 at T338C c-Src [1] (setting [5]) and at WT c-Src [2] (setting [6]) was greater than 5000 nM throughout.

Turning to `C=CS(=O)(=O)Nc1ccc(Cc2nn(C(C)C)c3ncnc(N)c23)cc1` [Compound 10, N-(4-((4-amino-1-isopropyl-1H-pyrazolo[3,4-d]pyrimidin-3-yl)methyl)phenyl)ethenesulfonamide], the IC50 is 1760 nM on T338C c-Src [1] (setting [5]) and 3080 nM on WT c-Src [2] (setting [6]).

For `C=CS(=O)(=O)Nc1cccc(Cc2nn(C(C)(C)C)c3ncnc(N)c23)c1` [Compound 16, N-(3-((4-amino-1-tert-butyl-1H-pyrazolo[3,4-d]pyrimidin-3-yl)methyl)phenyl)ethenesulfonamide], the values for the IC50 at T338C c-Src [1] (setting [5]) and on WT c-Src [2] (setting [6]) were 618 nM and greater than 5000 nM, respectively. In addition, the “fold drop in potency against T338C c-Src relative to compound 9” value on T338C c-Src [1] stood at 4 fold.

As for `CCS(=O)(=O)Nc1cccc(Cc2nn(C(C)C)c3ncnc(N)c23)c1` [Compound 11, N-(3-((4-amino-1-isopropyl-1H-pyrazolo[3,4-d]pyrimidin-3-yl)methyl)phenyl)ethanesulfonamide], the IC50 on T338C c-Src [1] (setting [5]) is 3500 nM; on WT c-Src [2] (setting [6]), greater than 5000 nM. Also, the “fold drop in potency against T338C c-Src relative to compound 9” value at T338C c-Src [1] came to 23 fold.

As to `C=CC(=O)Nc1cccc(-c2nn(C(C)C)c3ncncc23)c1` [Compound 2, N-(3-(1-isopropyl-1H-pyrazolo[3,4-d]pyrimidin-3-yl)phenyl)acrylamide], the IC50 at T338C c-Src [1] (setting [7]) was no less than 5000 nM; at T338C c-Src [1] (setting [5]), greater than 5000 nM; on WT c-Src [2] (setting [8]), no less than 5000 nM; on WT c-Src [2] (setting [6]) it was greater than 5000 nM.

With `C=CC(=O)Nc1cccc(Nc2ncnc3cc(OC)c(OC)cc23)c1` [Compound 18, N-(3-(6,7-dimethoxyquinazolin-4-ylamino)phenyl)acrylamide], the results for the IC50 at T338C c-Src [1] (setting [5]) and at WT c-Src [2] (setting [6]) were 1660 nM and greater than 5000 nM, respectively.

With `C=CS(=O)(=O)Nc1cccc(Cc2nn(C)c3ncnc(N)c23)c1` [Compound 15, N-(3-((4-amino-1-methyl-1H-pyrazolo[3,4-d]pyrimidin-3-yl)methyl)phenyl)ethenesulfonamide], the IC50 on T338C c-Src [1] (setting [5]) was 3160 nM; on WT c-Src [2] (setting [6]), greater than 5000 nM. Moreover, on T338C c-Src [1], the “fold drop in potency against T338C c-Src relative to compound 9” value came out at 21 fold.

Regarding `C=CC(=O)Nc1cccc(-c2nn(C(C)C)c3ncnc(N)c23)c1` [Compound 1, N-(3-(4-amino-1-isopropyl-1H-pyrazolo[3,4-d]pyrimidin-3-yl)phenyl)acrylamide], the IC50 on T338C c-Src [1] (setting [5]) stood at 419 nM; at WT c-Src [2] (setting [6]), 2320 nM.

`C=CS(=O)(=O)Nc1cccc(-c2nn(C(C)C)c3ncncc23)c1` [Compound 4, N-(3-(1-isopropyl-1H-pyrazolo[3,4-d]pyrimidin-3-yl)phenyl)ethenesulfonamide]: the IC50 was no less than 5000 nM on T338C c-Src [1] (setting [7]), greater than 5000 nM at T338C c-Src [1] (setting [5]), no less than 5000 nM at WT c-Src [2] (setting [8]) and greater than 5000 nM on WT c-Src [2] (setting [6]). The “off-target profile in kinome-wide screen” value in the test on 307 kinases was “relatively few off-target effects”.

In the case of `CC(C)n1nc(Cc2cccc(NC(=O)CCl)c2)c2c(N)ncnc21` [Compound 12, N-(3-((4-amino-1-isopropyl-1H-pyrazolo[3,4-d]pyrimidin-3-yl)methyl)phenyl)-2-chloroacetamide], the IC50 on T338C c-Src [1] (setting [5]) and on WT c-Src [2] (setting [6]) was greater than 5000 nM in each case.

Turning to `CC(C)n1nc(-c2cccc(NC(=O)CCl)c2)c2c(N)ncnc21` [Compound 6, N-(3-(4-amino-1-isopropyl-1H-pyrazolo[3,4-d]pyrimidin-3-yl)phenyl)-2-chloroacetamide], the half-maximal inhibitory concentration (IC50) at T338C c-Src [1] (setting [5]) is 817 nM; on WT c-Src [2] (setting [6]) it was greater than 5000 nM.

Turning to `C=CS(=O)(=O)Nc1cccc(Cc2nn(C3CCCC3)c3ncnc(N)c23)c1` [Compound 17, N-(3-((4-amino-1-cyclopentyl-1H-pyrazolo[3,4-d]pyrimidin-3-yl)methyl)phenyl)ethenesulfonamide], the results for the IC50 on T338C c-Src [1] (setting [5]) and on WT c-Src [2] (setting [6]) were 196 nM and greater than 5000 nM, respectively.

On to `Cc1ccc(-c2nn(C(C)(C)C)c3ncnc(N)c23)cc1` [PP1, reference compound], for which the “inhibitory activity after gel filtration, T338C c-Src” value on T338C c-Src [3] is “abrogated”. The “inhibitory activity after gel filtration, WT c-Src” value on WT c-Src [4] is listed as “abrogated”.

In the case of `C=CS(=O)(=O)Nc1cccc(-c2nn(C(C)C)c3ncnc(N)c23)c1` [Compound 3, N-(3-(4-amino-1-isopropyl-1H-pyrazolo[3,4-d]pyrimidin-3-yl)phenyl)ethenesulfonamide], the IC50 on T338C c-Src [1] (ES1 = T338C, read-out: c-Src variant IC50 (nM) ES1) came out at 111 nM; on T338C c-Src [1] (setting [5]), 111 nM; at c-Src-ES2 (T338C/V323A) (ES2 = T338C/V323A, read-out: c-Src variant IC50 (nM) ES2), 63 nM; on WT c-Src [2] (setting [6]), 1000 nM; on c-Src-ES3 (T338C/V323S) it was 131 nM. Besides, the “fold increase in inhibition of T338C relative to WT c-Src” value at T338C c-Src [1] was greater than 9 fold. Also, the “change of inhibitor potency upon second-site Val323 mutations” value at c-Src-ES2 (T338C/V323A) (c-Src-ES2 and c-Src-ES3 relative to c-Src-ES1) is reported as “not modulated appreciably”.

Regarding `C=CS(=O)(=O)Nc1ccc(-c2nn(C(C)C)c3ncnc(N)c23)cc1` [Compound 5, N-(4-(4-amino-1-isopropyl-1H-pyrazolo[3,4-d]pyrimidin-3-yl)phenyl)ethenesulfonamide], at T338C c-Src [1], the “fold increase in inhibition of T338C relative to WT c-Src” value is roughly 6 fold. Also, the IC50 on T338C c-Src [1] (setting [5]) was found to be 145 nM; on WT c-Src [2] (setting [6]), 899 nM.
